The record followed here is US11649227B2, “Allosteric chromenone inhibitors of phosphoinositide 3-kinase (PI3K) for the treatment of disease” (Petra Pharma Corporation, priority 2020, dated 2023).

One test relates to T-47D. Kind of test: Cellular Assay T-47D. The conditions noted are these: Homo sapiens, T47D; T-47D cells. The test is classed as cell-based.
Test [1] has as its target human full length PIK3CA H1047R mutant (p110α/p85α complex) (Homo sapiens (Human), UniProt P42336, H1047R). Kind of test: PI3K-Alpha kinase (PIK3CA) activity, H1047R mutant, Transcreener ADP2 FI assay. Conditions: PI3K-α (PIK3CA) H1047R mutant, biochemical. In outline:
(§1)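 Recombinant full-length p110α/p85α (1-5 nM, wild-type or H1047R) preincubated with compound 1 h at 27° C, then reacted with 25 uM ATP and 50 uM PIP2diC8 or membrane PIP2:PS in pH 7.4 HEPES, 25 mM MgCl2, 5% DMSO (also pH 6.0/6.4 MOPS). Run to ~2.5 uM ADP; Transcreener ADP2 fluorescence converted via ADP calibration for IC50.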

Test [2] addresses human full length PIK3CA Wild-type (p110α/p85α complex) (Homo sapiens (Human), UniProt P42336). Kind of test: PI3K-Alpha kinase (PIK3CA) activity, wild-type, Transcreener ADP2 FI assay. Conditions: PI3K-α (PIK3CA) wild-type, biochemical. In outline: as §1

human full length PIK3CA H1047R mutant (p110α/p85α complex), sequence (P42336 whole entry H1047R): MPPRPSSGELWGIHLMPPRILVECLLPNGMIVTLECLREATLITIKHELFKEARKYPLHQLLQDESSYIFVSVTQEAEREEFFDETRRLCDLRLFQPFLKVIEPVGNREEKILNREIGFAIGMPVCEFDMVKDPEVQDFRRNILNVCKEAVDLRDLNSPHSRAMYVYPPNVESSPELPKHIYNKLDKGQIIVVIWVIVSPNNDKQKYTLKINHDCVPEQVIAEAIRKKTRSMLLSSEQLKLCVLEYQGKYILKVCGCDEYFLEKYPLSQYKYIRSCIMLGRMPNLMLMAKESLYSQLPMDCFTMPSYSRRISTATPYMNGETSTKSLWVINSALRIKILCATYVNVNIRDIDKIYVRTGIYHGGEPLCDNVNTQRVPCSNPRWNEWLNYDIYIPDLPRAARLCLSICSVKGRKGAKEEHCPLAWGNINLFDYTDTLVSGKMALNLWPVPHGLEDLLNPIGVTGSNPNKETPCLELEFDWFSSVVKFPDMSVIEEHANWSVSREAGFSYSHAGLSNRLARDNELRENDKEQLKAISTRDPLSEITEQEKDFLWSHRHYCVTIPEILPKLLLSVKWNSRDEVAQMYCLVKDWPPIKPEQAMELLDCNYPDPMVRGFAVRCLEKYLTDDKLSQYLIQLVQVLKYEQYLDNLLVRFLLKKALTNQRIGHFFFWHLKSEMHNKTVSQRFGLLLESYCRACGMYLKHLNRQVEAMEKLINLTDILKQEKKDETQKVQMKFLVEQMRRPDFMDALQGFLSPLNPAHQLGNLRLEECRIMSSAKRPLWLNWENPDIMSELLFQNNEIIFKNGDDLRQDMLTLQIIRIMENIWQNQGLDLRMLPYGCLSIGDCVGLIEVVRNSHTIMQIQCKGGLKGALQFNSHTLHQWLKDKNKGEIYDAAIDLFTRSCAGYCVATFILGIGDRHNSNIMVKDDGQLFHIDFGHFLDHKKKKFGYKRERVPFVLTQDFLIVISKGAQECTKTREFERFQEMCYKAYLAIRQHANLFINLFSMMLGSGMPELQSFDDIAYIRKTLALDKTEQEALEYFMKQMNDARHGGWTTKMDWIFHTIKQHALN
human full length PIK3CA H1047R mutant (p110α/p85α complex), sequence (P27986 whole entry partner): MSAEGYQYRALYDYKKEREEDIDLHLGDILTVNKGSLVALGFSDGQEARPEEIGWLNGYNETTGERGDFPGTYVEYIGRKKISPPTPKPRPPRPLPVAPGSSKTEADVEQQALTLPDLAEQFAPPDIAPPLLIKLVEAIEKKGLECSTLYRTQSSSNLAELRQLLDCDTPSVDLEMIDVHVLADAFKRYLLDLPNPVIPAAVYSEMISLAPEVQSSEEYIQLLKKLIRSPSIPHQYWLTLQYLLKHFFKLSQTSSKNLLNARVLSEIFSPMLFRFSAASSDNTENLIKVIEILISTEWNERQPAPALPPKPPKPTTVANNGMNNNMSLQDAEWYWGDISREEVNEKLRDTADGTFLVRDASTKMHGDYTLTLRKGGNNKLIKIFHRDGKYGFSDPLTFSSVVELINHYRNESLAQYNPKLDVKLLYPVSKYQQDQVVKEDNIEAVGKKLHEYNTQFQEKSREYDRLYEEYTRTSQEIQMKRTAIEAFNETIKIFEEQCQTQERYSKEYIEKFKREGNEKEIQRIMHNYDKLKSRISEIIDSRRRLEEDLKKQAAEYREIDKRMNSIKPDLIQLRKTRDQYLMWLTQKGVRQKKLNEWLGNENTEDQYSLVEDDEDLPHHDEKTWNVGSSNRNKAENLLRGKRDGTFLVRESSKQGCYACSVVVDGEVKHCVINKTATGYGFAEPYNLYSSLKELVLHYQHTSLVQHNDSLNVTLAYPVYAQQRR
human full length PIK3CA Wild-type (p110α/p85α complex), sequence (P42336 whole entry): as the sequence (P42336 whole entry H1047R) above, with R1047H counted along it
human full length PIK3CA Wild-type (p110α/p85α complex), sequence (P27986 whole entry partner): as the sequence (P27986 whole entry partner) above

Broadly, the EC50 is the concentration needed to bring the measured effect to its halfway point. A lower EC50 goes with greater potency. Broadly, the IC50 is the concentration that inhibits the measured activity by half. A high value points to a need for much substance. Regarding `Cc1cc(C(C)Nc2ccccc2C(=O)O)c2oc(N3CCC(F)(F)CC3)cc(=O)c2c1` (single isomer, unassigned) [Example 130, 2-[1-[2-(4,4-Difluoro-1-piperidyl)-6-methyl-4-oxo-chromen-8-yl]ethylamino]benzoic acid], the 50% effective concentration (EC50) with T-47D is 1 to 5 µM. For the same compound, the IC50 in test [1] is less than 0.5 µM; in test [2] it was 1 to 5 µM.

The compound `COc1cc(C(=O)O)c(NC(C)c2cc(C)cc3c(=O)cc(N4CCC(C)(C)CC4)oc23)cc1F` (stereo not drawn) [Example 1, 2-[1-[2-(4,4-dimethyl-1-piperidyl)-6-methyl-4-oxo-chromen-8-yl]ethylamino]-4-fluoro-5-methoxy-benzoic acid] registered an EC50 with T-47D of 15 to 24 µM. In test [1], this compound registered a concentration for half-maximal inhibition (IC50) of 1 to 5 µM.

`CONC(=O)c1ccccc1NC(C)c1cc(C)cc2c(=O)cc(N3CCC(C)(C)CC3)oc12` (stereo not drawn) [Example 19, 2-[1-[2-(4,4-Dimethyl-1-piperidyl)-6-methyl-4-oxo-chromen-8-yl]ethylamino]-N-methoxy-benzamide] gave an EC50 in the test on T-47D of 15 to 24 µM. In test [2], the IC50 fell in the range of 0.5 to 1 µM.

In the case of `Cc1cc(C(C)Nc2ccccc2-c2nnn[nH]2)c2oc(N3CCC(C)(C)CC3)cc(=O)c2c1` (stereo not drawn) [Example 20, 2-(4,4-Dimethyl-1-piperidyl)-6-methyl-8-[1-[2-(1H-tetrazol-5-yl)anilino]ethyl]chromen-4-one], the EC50 in the test with T-47D lay in the range of 15 to 24 µM. Moreover, the IC50 in test [2] fell in the range of 0.5 to 1 µM.

`Cc1cc(C(C)Nc2ccccc2C(=O)O)c2oc(NCC(C)C)cc(=O)c2c1` (stereo not drawn) [Example 77, 2-[1-[2-(Isobutylamino)-6-methyl-4-oxo-chromen-8-yl]ethylamino]benzoic acid] returned an EC50 in the test with T-47D of more than 24 µM.

The compound `Cc1cc(C(C)Nc2ccccc2C(=O)O)c2oc(N(C)C)cc(=O)c2c1` (stereo not drawn) [Example 78, 2-[1-[2-(Dimethylamino)-6-methyl-4-oxo-chromen-8-yl]ethylamino]benzoic acid] showed a concentration for a half-maximal effect (EC50) in the test with T-47D of more than 24 µM.

`Cc1cc(C(C)Nc2ccccc2C(=O)O)c2oc(N3CCCC(C)C3)cc(=O)c2c1` (stereo not drawn) [Example 79, 2-[1-[6-Methyl-2-(3-methyl-1-piperidyl)-4-oxo-chromen-8-yl]ethylamino]benzoic acid]: the EC50 in the test with T-47D was in the range of 1 to 5 µM.

Compound `Cc1cc(C(C)Nc2ccccc2C(=O)O)c2oc(N3CCC4(CCNCC4)CC3)cc(=O)c2c1` (stereo not drawn) [Example 89, 2-[1-[2-(3,9-Diazaspiro[5.5]undecan-3-yl)-6-methyl-4-oxo-chromen-8-yl]ethylamino]benzoic acid] returned an EC50 in the test with T-47D of more than 24 µM.

`Cc1cc(C(C)Nc2ccccc2C(=O)O)c2oc(N3CCN(C(=O)OC(C)(C)C)CC3)cc(=O)c2c1` (stereo not drawn) [Example 90, 2-[1-[2-(4-tert-Butoxycarbonylpiperazin-1-yl)-6-methyl-4-oxo-chromen-8-yl]ethylamino]benzoic acid]: in the test on T-47D, the EC50 lay within 15 to 24 µM.

As to `Cc1cc(C(C)Nc2ccccc2C(=O)O)c2oc(N3CCNCC3)cc(=O)c2c1` (stereo not drawn) [Example 91, 2-[1-(6-Methyl-4-oxo-2-piperazin-1-yl-chromen-8-yl)ethylamino]benzoic acid], the EC50 in the test on T-47D was more than 24 µM.

For `Cc1cc(C(C)Nc2ccccc2C(=O)O)c2oc(N3CCN(C)CC3)cc(=O)c2c1` (stereo not drawn) [Example 92, 2-[1-[6-Methyl-2-(4-methylpiperazin-1-yl)-4-oxo-chromen-8-yl]ethylamino]benzoic acid], in the test with T-47D, the EC50 is more than 24 µM.

Turning to `Cc1cc(C(C)Nc2ccccc2C(=O)O)c2oc(N3CCC4(CCOCC4)CC3)cc(=O)c2c1` (stereo not drawn) [Example 94, 2-[1-[6-Methyl-2-(3-oxa-9-azaspiro[5.5]undecan-9-yl)-4-oxo-chromen-8-yl]ethylamino]benzoic acid], in the test with T-47D, the EC50 was 5 to 15 µM.

`Cc1cc(C(C)Nc2ccccc2C(=O)O)c2oc(N3CCCC4(CCNC4=O)C3)cc(=O)c2c1` (stereo not drawn) [Example 95, 2-[1-[6-Methyl-4-oxo-2-(1-oxo-2,9-diazaspiro[4.5]decan-9-yl)chromen-8-yl]ethylamino]benzoic acid] displayed an EC50 with T-47D of more than 24 µM.

On to `Cc1cc(C(C)Nc2ccccc2C(=O)O)c2oc(N3CCC4(CC3)COC4)cc(=O)c2c1` (stereo not drawn) [Example 98, 2-[1-[6-Methyl-2-(2-oxa-7-azaspiro[3.5]nonan-7-yl)-4-oxo-chromen-8-yl]ethylamino]benzoic acid], for which the 50% effective concentration (EC50) with T-47D is more than 24 µM.

For the compound `CCNc1cc(=O)c2cc(C)cc(C(C)Nc3ccccc3C(=O)O)c2o1` (stereo not drawn) [Example 126, 2-[1-[2-(Ethylamino)-6-methyl-4-oxo-chromen-8-yl]ethylamino]benzoic acid], in the test with T-47D, the concentration giving a half-maximal response (EC50) is more than 24 µM. Further, the IC50 in test [1] was in the range of 0.5 to 1 µM.

In the test with T-47D, `Cc1cc(C(C)Nc2ccccc2C(=O)O)c2oc(N3CCCC3)cc(=O)c2c1` (stereo not drawn) [Example 368, 2-[1-(6-Methyl-4-oxo-2-pyrrolidin-1-yl-chromen-8-yl)ethylamino]benzoic acid] had an EC50 of 15 to 24 µM.

In the test with T-47D, `Cc1cc(CNc2ccccc2C(=O)O)c2oc(N3CCC(C)(C)CC3)cc(=O)c2c1` [Example 369, 2-[[2-(4,4-Dimethyl-1-piperidyl)-6-methyl-4-oxo-chromen-8-yl]methylamino]benzoic acid] yielded an EC50 of more than 24 µM.

`Cc1cc(C(C)Nc2ccccc2C(=O)O)c2oc(N3CCC(C)CC3)cc(=O)c2c1` (stereo not drawn) [Example 370, 2-[1-[6-Methyl-2-(4-methyl-1-piperidyl)-4-oxo-chromen-8-yl]ethylamino]benzoic acid] yielded an EC50 in the test with T-47D of 1 to 5 µM.

`Cc1cc(C(C)Nc2ccccc2C(=O)O)c2oc(N3CCC3)cc(=O)c2c1` (stereo not drawn) [Example 375, 2-[1-[2-(Azetidin-1-yl)-6-methyl-4-oxo-chromen-8-yl]ethylamino]benzoic acid] returned an EC50 in the test with T-47D of more than 24 µM.

`Cc1cc([C@@H](C)Nc2ccccc2C(=O)O)c2oc(N3CCCCC3)cc(=O)c2c1` [Example 376, 2-[[(1R)-1-[6-Methyl-4-oxo-2-(1-piperidyl)chromen-8-yl]ethyl]amino]benzoic acid] yielded an EC50 with T-47D of 1 to 5 µM. The compound further showed an IC50 in test [2] of 1 to 5 µM.

Regarding `COCCOCCOC(=O)c1ccccc1N[C@H](C)c1cc(C)cc2c(=O)cc(N3CCCCC3)oc12` [Example 377, 2-(2-Methoxyethoxy)ethyl 2-[[(1R)-1-[6-methyl-4-oxo-2-(1-piperidyl)chromen-8-yl]ethyl]amino]benzoate], the EC50 in the test on T-47D is more than 24 µM.

In the test with T-47D, `COC(=O)c1ccccc1N[C@H](C)c1cc(C)cc2c(=O)cc(N3CCCCC3)oc12` [Example 379, Methyl 2-[[(1R)-1-[6-methyl-4-oxo-2-(1-piperidyl)chromen-8-yl]ethyl]amino]benzoate] displayed an EC50 of more than 24 µM.

In the test on T-47D, `Cc1cc(C(C)Nc2ccccc2C(=O)O)c2oc(N3CCC4(CC3)CN(C)C(=O)O4)cc(=O)c2c1` (stereo not drawn) [Example 380, 2-[1-[6-Methyl-2-(3-methyl-2-oxo-1-oxa-3,8-diazaspiro[4.5]decan-8-yl)-4-oxo-chromen-8-yl]ethylamino]benzoic acid] came in with a half-maximal effective concentration (EC50) of more than 24 µM. The same compound returned an IC50 in test [1] of 1 to 5 µM.

`Cc1cc(C(C)Nc2ccccc2C(=O)O)c2oc(N3CCC4(CCN(C)C4=O)CC3)cc(=O)c2c1` (stereo not drawn) [Example 381, 2-[1-[6-Methyl-2-(2-methyl-1-oxo-2,8-diazaspiro[4.5]decan-8-yl)-4-oxo-chromen-8-yl]ethylamino]benzoic acid]: the concentration giving a half-maximal response (EC50) in the test with T-47D was more than 24 µM.

With `Cc1cc([C@@H](C)Nc2ccccc2C(=O)O)c2oc(N3CCC(Cl)CC3)cc(=O)c2c1` [Example 383, 2-[[(1R)-1-[2-(4-Chloro-1-piperidyl)-6-methyl-4-oxo-chromen-8-yl]ethyl]amino]benzoic acid], in the test with T-47D, the EC50 lay within 1 to 5 µM.
